Source: US9314444B2, “Composition and method for treatment of NASH” (BioKier Inc., priority 2009, dated 2016)

How the values were obtained:
GLP-1 and PYY = assay: Direct colonic delivery, secretion of gut hormones from the colon; type: in vivo; settings: upper gut bypassed
GLP-1 = assay: Colon delivered L-glutamine, GLP-1 secretion in human diabetic subjects; type: in vivo
L-cells in the colon = settings: dosed orally and unformulated; cited from earlier work
[1] = test system: cell lines derived from L-cells; settings: cited from earlier work
rat liver = settings: butyrate formed from carbohydrates via fermentation in the rat colon; cited from earlier work

SMILES | secretion of GLP-1 from the colon (GLP-1 and PYY) | secretion of PYY from the colon (GLP-1 and PYY) | secretion of GLP-1 (GLP-1) | minimum effective amount (L-cells in the colon) [grams] | toxic dose (L-cells in the colon) [grams] | secretion of gut hormones [1] | fat in the rat liver (rat liver)
NC(=O)CC[C@H](N)C(=O)O [L-glutamine] | increase | increase | increased | 30 | ≥ 30 | induce secretion | –
CCCC(=O)O [butyric acid] | increase | increase | – | 30 | – | induce secretion | reduces
CCC(=O)O [propionic acid] | increase | increase | – | 30 | – | induce secretion | –
